From patent publication US20240058387A1, “CULTURE MEDIUM COMPOSITION FOR AMPLIFYING AND MAINTAINING SELF-RENEWAL CAPACITY AND DIFFERENTIATION POTENTIAL OF HSCS AND APPLICATION THEREOF” (EDIGENE (GUANGZHOU) INC., priority 2020, published 2024)

Test system: umbilical cord blood-derived CD34+ cells
Test: In vitro colony-forming unit (CFU) assay
Assay type: cell-based, human
Settings: FIG. 6, clones counted 14 days after seeding
Description: In this example, the colony-forming unit (CFU) was used to detect the in vitro function of cord blood-derived hematopoietic stem cells induced by a small molecule inhibitor for qualitative and quantitative detection to verify their in vitro differentiation potential.
First, 100 mL of medium MethoCult™ H4034 Optimum (Stem Cell, Cat. No.: 04034) were aliquoted, then thawing at 2-8° C. overnight; shaking vigorously for 1-2 minutes and letting it stand for 10 minutes until the bubbles rised to the liquid level. After tightly fitting the 50 mL syringe needle to the 5 mL disposable syringe, the medium is aspirated to 1 mL, pushing out the syringe completely to exhaust the gas in the syringe, and re-absorbing 3 mL into each 15 mL centrifuge tube (Corning, Cat. No. 430791); storing at 2-8° C. for 1 month, and at −20° C. for long-term storage.
3 mL of medium Meth® Cult′ H4034 Optimum was prepared and thawed overnight at room temperature (15-25° C.) or 2-8° C. […]
Colonies were observed on the 7th and 14th days of culture, and colonies were counted with a STEMgrid™-6 counting grid (stem cell, Cat. number: 27000) after 14 days of culture. […]

COc1cc2ncc(-c3ccccc3)nc2cc1OC [AG1296]
number of GEMM clones (CFU-GEMM) (1 μM, 8 days treatment): significantly better than the other groups
total number of clones (different concentrations of AG1296, 8 days treatment): little difference between the groups
